Experimental data from US12492193B2, “Pyrazole derivatives for the treatment of cystic fibrosis” (Fondazione Istituto Italiano Di Tecnologia, priority 2017, dated 2025).

Biological target: T1, mutant CFTR (Homo sapiens, UniProt P13569, DEL508-508)
T1 construct: expressed in transfected cells
Test: Fluorescence (HS-YFP) assay for CFTR activity, corrector assay
Assay type: cell-based
Settings: CFBE41o- and FRT cells with stable expression of mutant CFTR, 24 h compound treatment
Procedure, shortened: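 CFBE41o- or FRT cells stably expressing mutant CFTR and HS-YFP were exposed to compounds for 24 h (corrector mode), then stimulated 30 min at 37° C with forskolin (20 μM) plus genistein (50 μM). YFP quenching after 100 mM iodide injection; initial slope from exponential fit of final 10 s; EC50 reported.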

T1 sequence (P13569 with tags, fused parts or gaps DEL508-508): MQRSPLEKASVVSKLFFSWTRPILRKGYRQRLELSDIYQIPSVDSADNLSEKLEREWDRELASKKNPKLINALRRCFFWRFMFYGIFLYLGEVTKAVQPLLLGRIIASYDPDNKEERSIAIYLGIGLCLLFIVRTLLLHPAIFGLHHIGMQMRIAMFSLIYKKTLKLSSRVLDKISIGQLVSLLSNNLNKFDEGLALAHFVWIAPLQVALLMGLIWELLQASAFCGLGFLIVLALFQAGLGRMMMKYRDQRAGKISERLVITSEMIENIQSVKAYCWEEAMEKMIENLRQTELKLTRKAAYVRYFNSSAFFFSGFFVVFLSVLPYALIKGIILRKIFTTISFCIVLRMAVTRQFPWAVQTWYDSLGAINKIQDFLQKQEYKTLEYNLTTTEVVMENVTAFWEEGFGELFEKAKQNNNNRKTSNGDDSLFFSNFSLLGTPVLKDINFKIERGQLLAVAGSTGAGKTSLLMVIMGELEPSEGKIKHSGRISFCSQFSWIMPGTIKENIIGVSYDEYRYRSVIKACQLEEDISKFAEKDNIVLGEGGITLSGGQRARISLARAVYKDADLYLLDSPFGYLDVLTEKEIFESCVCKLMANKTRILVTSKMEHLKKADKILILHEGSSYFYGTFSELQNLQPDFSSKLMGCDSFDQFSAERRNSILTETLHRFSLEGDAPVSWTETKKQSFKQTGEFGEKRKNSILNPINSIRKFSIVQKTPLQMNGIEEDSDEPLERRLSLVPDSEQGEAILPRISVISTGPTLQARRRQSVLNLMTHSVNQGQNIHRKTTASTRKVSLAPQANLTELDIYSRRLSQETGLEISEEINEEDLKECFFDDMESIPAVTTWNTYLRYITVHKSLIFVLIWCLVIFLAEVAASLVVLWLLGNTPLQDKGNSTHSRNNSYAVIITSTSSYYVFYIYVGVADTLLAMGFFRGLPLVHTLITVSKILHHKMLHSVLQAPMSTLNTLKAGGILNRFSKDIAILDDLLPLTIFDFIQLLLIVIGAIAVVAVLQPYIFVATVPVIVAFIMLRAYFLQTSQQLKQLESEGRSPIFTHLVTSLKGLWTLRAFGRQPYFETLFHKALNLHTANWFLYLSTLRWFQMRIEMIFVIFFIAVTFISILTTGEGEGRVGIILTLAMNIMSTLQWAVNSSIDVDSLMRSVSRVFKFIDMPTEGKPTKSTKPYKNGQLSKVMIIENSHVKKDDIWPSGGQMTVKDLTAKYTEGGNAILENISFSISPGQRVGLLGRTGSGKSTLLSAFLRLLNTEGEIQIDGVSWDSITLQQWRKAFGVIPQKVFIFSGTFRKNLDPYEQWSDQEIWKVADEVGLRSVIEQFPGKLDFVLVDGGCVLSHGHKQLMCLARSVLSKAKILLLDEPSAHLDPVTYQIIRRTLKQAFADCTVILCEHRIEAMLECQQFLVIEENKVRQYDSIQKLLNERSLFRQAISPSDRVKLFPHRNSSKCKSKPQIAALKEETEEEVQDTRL

SMILES: Cc1cn2cc(N(C)C(=O)c3cccc(-n4nc(C(F)(F)F)c(Cl)c4COc4ccc(C(=O)O)cc4)c3)ccc2n1 [compound 256, 4-[[4-Chloro-2-[3-[methyl-(2-methylimidazo[1,2-a]pyridin-6-yl)carbamoyl]phenyl]-5-(trifluoromethyl)pyrazol-3-yl]methoxy]benzoic acid]
- EC50: < 1000 nM

SMILES: Cc1nn(-c2cccc(C(=O)N(C)c3ccc4c(c3)OCO4)c2)c(C=O)c1Cl [compound 112, N-(1,3-benzodioxol-5-yl)-3-(4-chloro-5-formyl-3-methyl-pyrazol-1-yl)-N-methyl-benzamide]
- EC50: < 1000 nM

SMILES: COc1ccc(N(C)C(=O)c2cccc(-n3nc(C)c(Cl)c3C)c2)cn1 [compound 021, 3-(4-Chloro-3,5-dimethyl-pyrazol-1-yl)-N-(6-methoxy-3-pyridyl)-N-methyl-benzamide]
- EC50: > 2000 nM

SMILES: Cc1nn(-c2cc(C(=O)N(C)c3ccc4c(c3)OCO4)ccc2C(F)(F)F)c(C)c1Cl [compound 071, N-(1,3-Benzodioxol-5-yl)-3-(4-chloro-3,5-dimethyl-pyrazol-1-yl)-N-methyl-4-(trifluoromethyl)benzamide]
- EC50: > 2000 nM

SMILES: Cc1c(Cl)c(C(F)(F)F)nn1-c1cccc(C(=O)N(C)c2ccc3c(c2C=O)OCO3)c1 [compound 207, 3-[4-chloro-5-methyl-3-(trifluoromethyl)pyrazol-1-yl]-N-(4-formyl-1,3-benzodioxol-5-yl)-N-methyl-benzamide]
- EC50: > 2000 nM

SMILES: COc1ccccc1-c1cc(C(F)(F)F)nn1-c1cccc(C(=O)N(C)c2ccc3c(c2)OCO3)c1 [compound 184, N-(1,3-Benzodioxol-5-yl)-3-[5-(2-methoxyphenyl)-3-(trifluoromethyl)pyrazol-1-yl]-N-methyl-benzamide]
- EC50: < 1000 nM

SMILES: Cc1nc2cc(F)c(N(C)C(=O)c3cccc(-n4nc(C(F)(F)F)c(Cl)c4OCc4ccc(C(=O)OC(C)(C)C)cc4)c3)cc2o1 [compound 202, Tert-butyl 4-[[4-chloro-2-[3-[(5-fluoro-2-methyl-1,3-benzoxazol-6-yl)-methyl-carbamoyl]phenyl]-5-(trifluoromethyl)pyrazol-3-yl]oxymethyl]benzoate]
- EC50: < 1000 nM

SMILES: Cc1nc2cc(F)c(N(C)C(=O)c3cccc(-n4nc(C(F)(F)F)c(Cl)c4C)c3)cc2o1 [compound 154, 3-[4-Chloro-5-methyl-3-(trifluoromethyl)pyrazol-1-yl]-N-(5-fluoro-2-methyl-1,3-benzoxazol-6-yl)-N-methyl-benzamide]
- EC50: < 1000 nM

SMILES: Cc1c(Cl)c(C(F)(F)F)nn1-c1cccc(C(=O)Nc2ccc3c(c2C=O)OCO3)c1 [Int-203, 3-[4-chloro-5-methyl-3-(trifluoromethyl)pyrazol-1-yl]-N-(4-formyl-1,3-benzodioxol-5-yl)benzamide]
- EC50: > 2000 nM

SMILES: CC(C)Oc1c(Cl)c(C(F)(F)F)nn1-c1cccc(C(=O)N(C)c2ccc3c(c2)OCO3)c1 [compound 142, N-(1,3-Benzodioxol-5-yl)-3-[4-chloro-5-isopropoxy-3-(trifluoromethyl)pyrazol-1-yl]-N-methyl-benzamide]
- EC50: < 1000 nM

SMILES: Cc1nn(-c2cccc(C(=O)N(C)c3ccc4c(c3)CCO4)c2)c(C)c1Cl [compound 058]
- EC50: < 1000 nM

SMILES: CN(C(=O)c1cccc(-n2nc(C(F)(F)F)c(Cl)c2-c2ccccc2)c1)c1ccc2c(c1)OCO2 [compound 124, N-(1,3-Benzodioxol-5-yl)-3-[4-chloro-5-phenyl-3-(trifluoromethyl)pyrazol-1-yl]-N-methyl-benzamide]
- EC50: < 1000 nM

SMILES: Cc1c(Cl)c(C(F)(F)F)nn1-c1cccc(C(=O)Nc2cc3c(cc2C#N)OCO3)c1 [compound 162, 3-[4-chloro-5-methyl-3-(trifluoromethyl)pyrazol-1-yl]-N-(6-cyano-1,3-benzodioxol-5-yl)benzamide]
- EC50: > 2000 nM

SMILES: Cc1nn(-c2cccc(S(=O)(=O)N(C)c3ccc4c(c3)OCCO4)c2)c(C)c1Cl [compound 020, 3-(4-chloro-3,5-dimethyl-pyrazol-1-yl)-N-(2,3-dihydro-1,4-benzodioxin-6-yl)-N-methyl-benzenesulfonamide]
- EC50: 1000 to 2000 nM

SMILES: Cc1nn(-c2cccc(C(=O)N(C)c3ccc4ocnc4c3)c2)c(C)c1Cl [compound 029, N-(1,3-Benzoxazol-5-yl)-3-(4-chloro-3,5-dimethyl-pyrazol-1-yl)-N-methyl-benzamide]
- EC50: > 2000 nM

SMILES: Cc1nc2ccc(N(C)C(=O)c3cccc(-n4nc(C)c(Cl)c4C)c3)cn2n1 [compound 079, 3-(4-Chloro-3,5-dimethyl-pyrazol-1-yl)-N-methyl-N-(2-methyl-[1,2,4]triazolo[1,5-a]pyridin-6-yl)benzamide]
- EC50: > 2000 nM

SMILES: CN(C(=O)c1cccc(-n2nc(C(F)(F)F)cc2OCc2ccc(C(=O)O)cc2)c1)c1ccc2c(c1)OC(F)(F)O2 [compound 197, 4-[[2-[3-[(2,2-difluoro-1,3-benzodioxol-5-yl)-methyl-carbamoyl]phenyl]-5-(trifluoromethyl)pyrazol-3-yl]oxymethyl]benzoic acid]
- EC50: < 1000 nM

SMILES: CN(C(=O)c1cccc(-n2nc(C(F)(F)F)c(Cl)c2COC2CC(C(=O)O)C2)c1)c1ccc2c(c1)OC(F)(F)O2 (stereo not drawn) [compound 257, 3-[[4-Chloro-2-[3-[(2,2-difluoro-1,3-benzodioxol-5-yl)-methyl-carbamoyl]phenyl]-5-(trifluoromethyl)pyrazol-3-yl]methoxy]cyclobutanecarboxylic acid]
- EC50: < 1000 nM

SMILES: CCc1nc2ccc(N(C)C(=O)c3cccc(-n4nc(C)c(Cl)c4C)c3)cc2o1 [compound 076, 3-(4-Chloro-3,5-dimethyl-pyrazol-1-yl)-N-(2-ethyl-1,3-benzoxazol-6-yl)-N-methyl-benzamide]
- EC50: < 1000 nM

SMILES: CN(C(=O)c1cccc(-n2nc(C(F)(F)F)c(C#N)c2COc2ccc(C(=O)OC(C)(C)C)cc2)c1)c1ccc2c(c1)OC(F)(F)O2 [compound 259, Tert-butyl 4-[[4-cyano-2-[3-[(2,2-difluoro-1,3-benzodioxol-5-yl)-methyl-carbamoyl]phenyl]-5-(trifluoromethyl)pyrazol-3-yl]methoxy]benzoate]
- EC50: < 1000 nM

SMILES: Cc1c(Cl)c(C(F)(F)F)nn1-c1cccc(C(=O)N(C)c2cc3c(cc2CO)OCO3)c1 [compound 168, 3-[4-chloro-5-methyl-3-(trifluoromethyl)pyrazol-1-yl]-N-[6-(hydroxymethyl)-1,3-benzodioxol-5-yl]-N-methyl-benzamide]
- EC50: 1000 to 2000 nM

SMILES: Cc1nn(-c2cccc(C(=O)Nc3ccc4oc(C5CC5)nc4c3)c2)c(C)c1Cl [Int-053, 3-(4-Chloro-3,5-dimethyl-pyrazol-1-yl)-N-(2-cyclopropyl-1,3-benzoxazol-5-yl)benzamide]
- EC50: > 2000 nM

SMILES: Cc1nc2ccc(N(C)C(=O)c3cccc(-n4nc(C(F)(F)F)c(Cl)c4OCc4ccc(C(=O)OC(C)(C)C)cc4)c3)cc2o1 [compound 190, Tert-butyl 4-[[4-chloro-2-[3-[methyl-(2-methyl-1,3-benzoxazol-6-yl)carbamoyl]phenyl]-5-(trifluoromethyl)pyrazol-3-yl]oxymethyl]benzoate]
- EC50: < 1000 nM

SMILES: Cc1c(Cl)c(C(F)(F)F)nn1-c1cccc(C(=O)N(C)c2ccc3c(c2C(=O)O)OCO3)c1 [compound 208, 5-[[3-[4-chloro-5-methyl-3-(trifluoromethyl)pyrazol-1-yl]benzoyl]-methyl-amino]-1,3-benzodioxole-4-carboxylic acid]
- EC50: > 2000 nM
